Measured values reported in patent US5442064A, “Carboxylic acid derivatives, pharmaceutical compositions containing these compounds and processes for preparing them” (Dr. Karl Thomae GmbH, priority 1992, dated 1995).
pEC50, pIC50: −log10 of the molar value. Counter-ions that a name gives are not always drawn.

How the values were obtained:
platelet aggregation = test: Inhibition of platelet aggregation (collagen-induced, Born and Cross, platelet-rich plasma of healthy volunteers); type: cell-based; settings: 10 minutes preincubation at 37° C
Description: In order to do this, donor blood is taken from an anticubital vein and anticoagulated with trisodium citrate (final concentration 13 mM). The blood is centrifuged for 10 minutes at 170×g and the supernatant platelet-rich plasma (PRP) is removed. The remaining blood is vigorously centrifuged once more in order to obtain plasma. The PRP is diluted 1:10 with autologous plasma. 750 μl are incubated with 50 μl of physiological saline solution, 100 μl of test substance solution, 50 μl of ^14 C-sucrose (3,700 Bq) and 50 μl of ^3 H-BIBU 52 (final concentration: 5 nM) at ambient temperature for 20 minutes. In order to measure the non-specific binding, 5μl of BIBU 52 (final concentration: 30 μM) are used instead of the test substance. The samples are centrifuged for 20 seconds at 10,000×g and the supernatant is poured off. 100 μl thereof are measured in order to determine the free ligand. The pellet is dissolved in 500 μl of 0.2N NaOH, 450 μl are mixed with 2 ml of scintillator and 25 μl of 5N HCl and measured. The residual plasma remaining in the pellet is determined from the ^14 C-content and the bound ligand is determined from the ^3 H-measurement. After the non-specific binding has been deducted, the pellet activity is plotted against the concentration of the test substance and the concentration for 50% inhibition of binding is determined. 2. Antithrombotic activity The thrombocyte aggregation is measured using the method of Born and Cross (J. Physiol. 170: 397 (1964)) in platelet-rich plasma taken from healthy volunteers. To inhibit coagulation the blood is mixed with 3.14% sodium citrate in a volume ratio of 1:10. The pattern of the decrease in optical density of the platelet suspension is photometrically measured and recorded after the addition of the aggregation-triggering substance. The rate of aggregation is determined from the angle of inclination of the density curve. The point on the curve where there is maximum light transmittance is used to calculate the optical density. The concentration of collagen used is as small as possible but sufficient to produce an irreversible reaction curve. Standard commercial collagen produced by Hormonchemie of Munich is used. Before the addition of the collagen the plasma is incubated for 10 minutes with the substance at 37° C. From the concentration/activity curve an EC50 is determined, which describes the concentration giving a 50% change in the optical density in terms of the inhibition of aggregation.

human thrombocytes = test: Competitive binding of ^3 H-BIBU 52/test substance to human thrombocytes; settings: human thrombocytes in plasma; ^3 H-BIBU 52 5 nM; ambient temperature, 20 minutes
Description: 1. Competitive binding of ^3 H-BIBU 52/test substance to human thrombocytes: […] Case 5/1093-FL), which replaces the ^125 I fibrinogen ligand known from the literature and various concentrations of the substance to be tested. The free and bound ligand is separated by centrifuging and quantified by scintillation counting. The inhibition of ^3 H-BIBU 52 binding by the test substance is determined from the measurements obtained. In order to do this, donor blood is taken from an anticubital vein and anticoagulated with trisodium citrate (final concentration 13 mM). The blood is centrifuged for 10 minutes at 170×g and the supernatant platelet-rich plasma (PRP) is removed. The remaining blood is vigorously centrifuged once more in order to obtain plasma. The PRP is diluted 1:10 with autologous plasma. 750 μl are incubated with 50 μl of physiological saline solution, 100 μl of test substance solution, 50 μl of ^14 C-sucrose (3,700 Bq) and 50 μl of ^3 H-BIBU 52 (final concentration: 5 nM) at ambient temperature for 20 minutes. In order to measure the non-specific binding, 5μl of BIBU 52 (final concentration: 30 μM) are used instead of the test substance. The samples are centrifuged for 20 seconds at 10,000×g and the supernatant is poured off. 100 μl thereof are measured in order to determine the free ligand. The pellet is dissolved in 500 μl of 0.2N NaOH, 450 μl are mixed with 2 ml of scintillator and 25 μl of 5N HCl and measured. The residual plasma remaining in the pellet is determined from the ^14 C-content and the bound ligand is determined from the ^3 H-measurement. After the non-specific binding has been deducted, the pellet activity is plotted against the concentration of the test substance and the concentration for 50% inhibition of binding is determined. 2. Antithrombotic activity

Row | SMILES | pEC50 (platelet aggregation; Homo sapiens, Platelet) | pIC50 (human thrombocytes) | pEC50 (platelet aggregation; human platelet-rich plasma)
1 | NCc1ccc(C2CCN(C(=O)N[C@H]3CC[C@H](C(=O)O)CC3)CC2)cc1 [2(11), 4-(4-aminomethylphenyl)-1-[N-(trans-4-carboxycyclohexyl)-aminocarbonyl]-piperidine-hydrochloride] | 6.42 | 6.64 | –
2 | NCc1ccc(N2CCC(C(=O)N[C@H]3CC[C@H](C(=O)O)CC3)CC2)cc1 [3(17), 1-(4-aminomethylphenyl)-4-[N-(trans-4-carboxycyclo-hexyl)-aminocarbonyl]-piperidine-hydrochloride] | 6.74 | 7.13 | –
3 | COC(=O)[C@H]1CC[C@H](NC(=O)N2CCC(c3ccc(C(=N)N)cc3)CC2)CC1 [1(5), 4-(4-amidinophenyl)-1-[N-[trans-4-(methoxycarbonyl)-cyclohexyl]-aminocarbonyl]-piperidine-hydrochloride] | 7.10 | 5.92 | –
4 | N=C(N)c1ccc(N2CCC(C(=O)N[C@H]3CC[C@H](C(=O)O)CC3)CC2)cc1 [3(15), 1-(4-amidinophenyl)-4-[N-(trans-4-carboxycyclo-hexyl)-aminocarbonyl]-piperidine] | 7.52 | 8.24 | –
5 | N=C(NC(=O)OCc1ccccc1)c1ccc(N2CCN(C(=O)N[C@H]3CC[C@H](C(=O)O)CC3)CC2)cc1 [3(1), 1-[4-(N-benzyloxycarbonyl-amidino)-phenyl]-4-[N-(trans-4-carboxycyclohexyl)-aminocarbonyl]-piperazine] | 6.18 | 6.64 | –
6 | CC(C)OC(=O)[C@H]1CC[C@H](NC(=O)N2CCN(c3ccc(C(=N)N)cc3)CC2)CC1 [Example 7, 1-(4-Amidinophenyl)-4-[N-[trans-4-(isopropoxycarbonyl)-cyclohexyl]-aminocarbonyl]-piperazine-dihydrochloride] | 6.55 | 5.92 | –
7 | N=C(N)c1ccc(N2CCC(C(=O)N(CCCc3ccccc3)[C@H]3CC[C@H](C(=O)O)CC3)CC2)cc1 [3(25), 1-(4-amidinophenyl)-4-[N-(trans-4-carboxycyclohexyl)-N-(3-phenylpropyl)-aminocarbonyl]-piperidine] | 7.28 | 8.40 | –
8 | N=C(N)c1ccc(N2CCC(C(=O)N3CCC(CC(=O)O)CC3)CC2)nc1 [2(42), 1-(5-amidinopyrid-2-yl)-4-[4-(carboxymethyl)-piperidinocarbonyl]-piperidine-dihydrochloride] | 6.77 | 7.00 | –
9 | CCOC(=O)[C@H]1CC[C@H](NC(=O)N2CCN(c3ccc(C(=N)N)cc3)CC2)CC1 [Example 8, 1-(4-Amidinophenyl)-4-[N-[trans-4-(ethoxycarbonyl)-cyclohexyl]-aminocarbonyl]-piperazine-dihydrochloride] | 6.72 | 6.27 | –
10 | N=C(N)c1ccc(N2CCN(C(=O)N3CC=C(CC(=O)O)CC3)CC2)cc1 [2(19), 1-(4-amidinophenyl)-4-[4-(carboxymethyl)-3,4-dehydro-piperidinocarbonyl]-piperazine-dihydrochloride] | 6.21 | 6.43 | –
11 | CN(C(=O)N1CCN(c2ccc(C(=N)N)cc2)CC1)[C@H]1CC[C@H](C(=O)O)CC1 [2(1), 1-(4-amidinophenyl)-4-[N-(trans-4-carboxycyclohexyl)-N-methyl-aminocarbonyl]-piperazine-dihydrochloride] | 7.40 | 7.74 | –
12 | N=C(N)c1ccc(N2CCC(C(=O)N[C@H]3CC[C@H](C(=O)O)CC3)CC2)nc1 [2(2), 1-(5-amidinopyrid-2-yl)-4-[N-(trans-4-carboxycyclohexyl)-aminocarbonyl]-piperidine-dihydrochloride] | 7.05 | 7.33 | –
13 | COC(=O)[C@H]1CC[C@H](NC(=O)N2CCN(c3ccc(CN)cc3)CC2)CC1 [Example 4, 1-(4-Aminomethylphenyl)-4-[N-[trans-4-(methoxycarbonyl)-cyclohexyl]-aminocarbonyl]-piperazine-hydrochloride] | 5.37 | 5.28 | –
14 | N=C(N)c1ccc(C2CCN(C(=O)N[C@H]3CC[C@H](C(=O)O)CC3)CC2)cc1 [3(2), 4-(4-amidinophenyl)-1-[N-(trans-4-carboxycyclohexyl)-aminocarbonyl]-piperidine] | – | 7.85 | 7.00
15 | N=C(N)c1ccc(N2CCN(C(=O)N(Cc3ccccc3)[C@H]3CC[C@H](C(=O)O)CC3)CC2)cc1 [2(6), 1-(4-amidinophenyl)-4-[N-benzyl-N-(trans-4-carboxycyclohexyl)-aminocarbonyl]-piperazine-dihydrochloride] | 7.40 | 8.82 | –
16 | N=C(N)c1ccc(N2CCN(C(=O)N3CCC(CC(=O)O)CC3)CC2)cc1 [2(17), 1-(4-amidinophenyl)-4-[4-(carboxymethyl)-piperidinocarbonyl]-piperazine-dihydrochloride] | 6.89 | 7.36 | –
17 | COC(=O)[C@H]1CC[C@H](N(C)C(=O)N2CCN(c3ccc(C(=N)N)cn3)CC2)CC1 [1(9), 1-(5-amidinopyrid-2-yl)-4-[N-[trans-4-(methoxycarbonyl)-cyclohexyl]-N-methyl-aminocarbonyl]-piperazine-hydrochloride] | 7.05 | 4.77 | –
18 | N=C(N)c1ccc(N2CCC(CC(=O)NCCC(=O)O)CC2)cc1 [3(12), 1-(4-amidinophenyl) -4-[N-(2-carboxyethyl)-amino-carbonylmethyl]-piperidine] | 6.54 | 6.74 | –
19 | N=C(N)c1ccc(N2CCC(C(=O)N3CCC(CC(=O)O)CC3)CC2)cc1 [3(4), 1-(4-amidinophenyl)-4-[4-(carboxymethyl)-piperidino-carbonyl]-piperidine] | 7.00 | 7.11 | –
20 | COC(=O)[C@H]1CC[C@H](N(C)C(=O)N2CCN(c3ccc(C(=N)N)cc3)CC2)CC1 [1(1), 1-(4-amidinophenyl)-4-[N-[trans-4-(methoxycarbonyl)-cyclohexyl]-N-methyl-aminocarbonyl]-piperazine-hydrochloride] | 6.96 | 6.06 | –
21 | CCCCCN(C(=O)C1CCN(c2ccc(C(=N)N)cc2)CC1)[C@H]1CC[C@H](C(=O)O)CC1 [3(26), 1-(4-amidinophenyl)-4-[N-(trans-4-carboxycyclohexyl)-N-(n-pentyl)-aminocarbonyl]-piperidine] | 7.19 | 7.92 | –
22 | N=C(N)c1ccc(N2CCC(C(=O)N(CCc3ccccc3)[C@H]3CC[C@H](C(=O)O)CC3)CC2)cc1 [3(24), 1-(4-amidinophenyl)-4-[N-(trans-4-carboxycyclohexyl)-N-(2-phenylethyl)-aminocarbonyl]-piperidine] | 6.96 | 8.04 | –
23 | N=C(N)c1ccc(C2CCN(C(=O)N[C@H]3CC[C@H](C(=O)O)CC3)CC2)cc1 [2(3), 4-(4-amidinophenyl)-1-[N-(trans-4-carboxycyclohexyl)-aminocarbonyl]-piperidine-hydrochloride] | – | 8.35 | 7.52
24 | NCc1ccc(N2CCN(C(=O)N[C@H]3CC[C@H](C(=O)O)CC3)CC2)nc1 [2(22), 1-(5-aminomethylpyrid-2-yl)-4-[N-(trans-4-carboxycyclohexyl)-aminocarbonyl]-piperazine-dihydrochloride] | 6.17 | 6.51 | –
25 | COC(=O)CC1CCN(C(=O)N2CCN(c3ccc(C(=N)N)cc3)CC2)CC1 [1(25), 1-(4-amidinophenyl)-4-[4-(methoxycarbonylmethyl)-piperidinocarbonyl]-piperazine-hydrochloride] | 5.17 | 4.52 | –
